In ChEMBL document CHEMBL4138237, “Activation of anti-oxidant Nrf2 signaling by enone analogues of curcumin” (Eur J Med Chem, 2018):
Active and inactive are the calls of the source.

Experiments:
[1] = target: T1, Nuclear factor erythroid 2-related factor 2 (Homo sapiens) (UniProt Q16236); experiment: Activation of Nrf2 (unknown origin) expressed in human HepG2 cells at 15 uM after 5 hrs by ARE-driven luciferase reporter gene assay relative to control; type: cell-based
T1 sequence (whole entry): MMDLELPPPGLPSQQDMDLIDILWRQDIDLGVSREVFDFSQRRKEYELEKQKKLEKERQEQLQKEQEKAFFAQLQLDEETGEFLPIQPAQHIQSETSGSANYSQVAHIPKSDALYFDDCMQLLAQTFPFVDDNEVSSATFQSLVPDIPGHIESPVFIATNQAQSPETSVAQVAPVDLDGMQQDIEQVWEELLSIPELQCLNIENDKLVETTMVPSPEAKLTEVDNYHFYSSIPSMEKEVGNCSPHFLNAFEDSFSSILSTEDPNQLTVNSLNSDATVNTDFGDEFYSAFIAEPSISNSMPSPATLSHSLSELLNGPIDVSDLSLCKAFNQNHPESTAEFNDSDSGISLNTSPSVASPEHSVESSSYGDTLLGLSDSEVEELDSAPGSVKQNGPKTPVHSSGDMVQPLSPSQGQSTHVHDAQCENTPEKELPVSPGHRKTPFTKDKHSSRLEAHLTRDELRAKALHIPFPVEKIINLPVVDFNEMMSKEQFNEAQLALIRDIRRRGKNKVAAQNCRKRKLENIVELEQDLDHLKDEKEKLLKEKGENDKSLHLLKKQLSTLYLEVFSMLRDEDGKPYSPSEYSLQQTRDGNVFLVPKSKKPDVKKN

[2] = target: Luciferin 4-monooxygenase (Photinus pyralis, UniProt P08659); experiment: Effect on firefly luciferase activity expressed in human HepG2 cells at low concentration after 5 hrs by luminescence assay; type: ADME, cell-based; conditions: hepg2, 5 h
Luciferin 4-monooxygenase, sequence (P08659 whole entry): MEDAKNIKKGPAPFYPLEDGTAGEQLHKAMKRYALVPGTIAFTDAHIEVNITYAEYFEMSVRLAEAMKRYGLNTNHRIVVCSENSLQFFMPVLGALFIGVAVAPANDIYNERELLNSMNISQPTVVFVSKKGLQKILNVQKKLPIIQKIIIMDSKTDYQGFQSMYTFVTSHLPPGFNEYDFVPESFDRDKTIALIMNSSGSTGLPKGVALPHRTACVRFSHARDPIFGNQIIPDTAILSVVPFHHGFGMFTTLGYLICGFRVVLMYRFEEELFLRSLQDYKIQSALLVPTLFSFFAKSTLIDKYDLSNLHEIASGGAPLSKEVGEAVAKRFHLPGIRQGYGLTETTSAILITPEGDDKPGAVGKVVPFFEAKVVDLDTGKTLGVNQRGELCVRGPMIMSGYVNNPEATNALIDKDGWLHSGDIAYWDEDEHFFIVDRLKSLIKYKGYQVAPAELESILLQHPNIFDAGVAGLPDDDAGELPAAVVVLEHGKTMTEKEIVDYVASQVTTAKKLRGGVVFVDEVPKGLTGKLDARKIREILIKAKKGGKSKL

Row | Compound | Activity [1] | Activity [2] | fold change (FC) [1]
1 | Cc1ccc(/C=C/C(=O)CC(=O)/C=C/c2ccc(C)cc2)cc1 | inactive | Non-Toxic | –
2 | Cc1ccc(C(=O)/C=C/c2ccccc2)c(C)c1 | – | Non-Toxic | 29.9
3 | O=C(/C=C/c1ccccc1C(F)(F)F)/C=C/c1ccccc1C(F)(F)F | inactive | Non-Toxic | –
4 | O=C(/C=C/c1cccc(Cl)c1)/C=C/c1cccc(Cl)c1 | inactive | Non-Toxic | –
5 | CN1C/C(=C\c2cccc(C(F)(F)F)c2)C(=O)/C(=C/c2cccc(C(F)(F)F)c2)C1 | Active | Non-Toxic | –
6 | COc1cc(/C=C/C(=O)CC(=O)/C=C/c2ccc(O)c(OC)c2)ccc1O [CURCUMIN] | – | Non-Toxic | 22.6
7 | O=C(/C=C/c1ccccc1)C(Cc1ccccc1)(Cc1ccccc1)C(=O)/C=C/c1ccccc1 | Active | Non-Toxic | –
